According to patent US10004718B2, “Erythropoietin expression promoter” (TOHOKU UNIVERSITY, priority 2012, dated 2018):

How the values were obtained:
[1] = system: ATP production in Hep3B cells; experiment: ATP production in Hep3B cells; type: cell-based, human; conditions: for amount of ATP produced (FIG. 8): compound 10 μM, 24 hours, ratio to DMSO = 1; for increase of ATP concentration in cells relative to the normal level: at least in 3 hours
Method: The Hep3B cells were seeded at 1×10^4 cells/well to a 24-well cell culture plate and then cultured under normal oxygen (20% O2) for 24 hours. Each of 36 types of compounds (compounds #1 to 15, 17 to 31, and 34 to 39) was mixed at a concentration of 10 μM into RPMI1640 common medium 1. After further culture under normal oxygen (20% […]) for 3 hours, 6 hours, or 24 hours, the concentration of ATP produced in the medium was measured using ATP Assay Reagent of “Cells” (manufactured by Toyo B-Net Co., Ltd.) and GloMa 96 Microplate Luminometer (manufactured by Promega K.K.). Hep3B cells cultured in the absence of the compound (DMSO added [1%]) (“DMSO” of FIGS. 6 to 8) were used as a negative control. Hep3B cells cultured in the presence of HIF activators (FG-4592 [10 μM], DMOG [10 μM], 3,4-DHB [10 μM], and ciclopirox[10 μM]) (“FG”, “DMOG”, “34-DHB”, and “Ciclo”, respectively, of FIGS. 6 to 8) and Hep3B cells cultured in the presence of a transcriptional repressor GATA-specific inhibitor of erythropoietin (K7174 [10 μM]) (“K7174” of FIGS. 6 to 8) were used as positive controls.

[2] = system: mouse erythropoietin gene promoter; experiment: Luciferase reporter assay of erythropoietin gene promoter in Hep3B cells; type: cell-based; conditions: for effect on erythropoietin gene promoter transcriptional activity compared with HIF activator FG-4592: compound 10 μM vs FG-4592 10 μM, 20% O2; for transcription level of the erythropoietin gene promoter: compound 10 μM, 20% O2, 48 hours, vs 20% O2/DMSO
Method: A plasmid vector HE-mPro-luc for luciferase assay on the promoter activity of the 5′ upstream transcriptional regulatory region of the mouse erythropoietin gene was prepared by cleaving, with restriction enzymes XbaI and SacI, a region having a length from −571 to +53 bp starting at the translation initiation site of exon 1 of the mouse erythropoietin gene, and inserting this region to a luciferase reporter vector pXP2 (Nordeen S K. BioTechniques. 6: […], 1988).
The Hep3B cells were adjusted to 10×10^4 cells/well in a 24-well cell culture plate and subcultured. Under microscopy, the Hep3B cells that reached a cell density of 70 to 80% were transfected with the plasmid DNA for luciferase reporter assay. The composition of a solution for transfection was prepared by mixing 2 μg of HE-mPro-luc, 50 ng of pRh-TK (manufactured by Promega K.K.), and 2 μl of Lipofectamine 2000 (manufactured by Invitrogen Corp.) with 100 μl of OptiMEM-I (manufactured by Life Technologies, Inc./GIBCO) per well, followed by incubation at room temperature for 20 minutes. The solution was added to the Hep3B cells in the 24-well cell culture plate preincubated in 0.5 ml of serum-free OptiMEM-I medium, and then incubated for 4 hours without serum and antibiotics under conditions of 37° C. and 5% CO2/20% O2. Then, the medium was replaced with RPMI1640 common medium 1 supplemented with each of 5 types of compounds (compounds #2, 4, 5, 18, and 21) at a concentration of 10 μM, followed by further incubation for 48 hours under conditions of 37° C. and 5% CO2/20% O2. Then, the medium was replaced with 0.5 ml of serum-free PBS, and the cells were gently washed, followed by the removal of PBS by suction. This operation was carried out twice. Then, 100 μl of passive lysis buffer (manufactured by Promega K.K.) was added thereto, and the cells were lysed by mixing at room temperature for 20 minutes. Hep3B cells cultured in the absence of the compound (DMSO added [1%]) (“20% O2/DMSO” of FIG. 3) were used as a negative control. Hep3B cells cultured in the presence of an HIF activator (FG-4592 [10 μM]) (“20% O2/FG4592” of FIG. 3) and Hep3B cells cultured under hypoxia (1% O2) conditions and in the absence of the compound (DMSO added [1%]) (“1% O2/DMSO” of FIG. 3) were used as positive controls.
Dual Luciferase Reporter Assay System (manufactured by Promega K.K.) was used in the luciferase reporter assay. The amounts of firefly and Renilla luciferases were measured using a luminometer Lumat LB9507 (manufactured by BERTHOLD TECHNOLOGIES GmbH & Co. KG). The amount of Fire fly luciferase was divided by the amount of Renilla luciferase to calculate the transcriptional activity of the erythropoietin gene.

[3] = system: mRNA expression of the erythropoietin gene; experiment: Quantitative PCR of erythropoietin mRNA in Hep3B cells; type: cell-based, human; conditions: compound 10 μM, 20% O2, GAPDH internal standard
Method: Of the 5 types of compounds confirmed in Example 4 to be effective for promoting the transcriptional activity of the erythropoietin gene promoter, 4 types of compounds (compounds #2, 4, 5, and 21) were selected. From Hep3B cells cultured in RPMI1640 common medium 1 supplemented with each of these 4 types of compounds at a concentration of 10 μM, total RNA was extracted using TriPure Isolation Reagent (manufactured by F. Hoffmann La Roche AG) in a 6-well cell culture plate. Hep3B cells cultured in the absence of the compound (DMSO added) (“20% O2/DMSO” of FIG. 4) were used as a negative control. Hep3B cells cultured in the presence of a GATA-specific inhibitor (K7174 [10 μM]) (“20% O2/K7174” of FIG. 4) and Hep3B cells cultured under hypoxia (1% O2) conditions and in the absence of the compound (DMSO added [1%]) (“1% O2/DMSO” of FIG. 4) were used as positive controls.
The extracted RNA was used as a template to synthesize cDNA using SuperScript III RTS First-strand kit (manufactured by Invitrogen Corp.). Then, the expression of the erythropoietin mRNA was measured by quantitative PCR with GAPDH as an internal standard. The quantitative PCR was carried out using TaqMan® Gene Expression Assays (using GAPDH; Assay ID: Rn99999916_s1, and human erythropoietin; Assay ID: Hs00171267_ml TaqMan® probes [manufactured by Applied Biosystems Inc.]) and Step One Plus Real-Time PCR System (manufactured by Applied Biosystems Inc.).

Leigh cells = experiment: Cell death caused by oxidative stress (BSO) in Leigh syndrome patient fibroblasts; type: cell-based, human; conditions: compound 10 μM, 4 days after BSO treatment
Method: In Examples 2 to 7 and Reference Example 1 below, an erythropoietin-producing human hepatocellular carcinoma cell Hep3B (obtained from ATCC [American Type Culture Collection]) was cultured and maintained under conditions of 5% CO2/20% O2 and 37° C. in an RPMI1640 (manufactured by Life Technologies, Inc./GIBCO) medium containing 100 U/mL penicillin (manufactured by Life Technologies, Inc./GIBCO), 100 μg/mL streptomycin (manufactured by Life Technologies, Inc./GIBCO), and 10% fetal bovine serum (FBS) (manufactured by Life Technologies, Inc./GIBCO) (hereinafter, referred to as “RPMI1640 common medium 1”). In Example 15 below, Leigh syndrome patients were subjected to skin biopsy to obtain skin fibroblast cells, which were then primarily cultured under conditions of 5% CO2/20% O2 and 37° C. in a DMEM low glucose (manufactured by Life Technologies, Inc./GIBCO) medium containing 100 U/mL penicillin (manufactured by Life Technologies, Inc./GIBCO), 100 μg/mL streptomycin (manufactured by Life Technologies, Inc./GIBCO), and 1% FBS (manufactured by Life Technologies, Inc./GIBCO) (hereinafter, referred to as “DMEM low glucose common medium”) to isolate cells (Leigh cells). In Example 13 below, a human kidney-derived cell line HK-2 (obtained from ATCC) was cultured and maintained under conditions of 5% CO2/20% O2 and 37° C. in a DMEM/F12 (manufactured by Life Technologies, Inc./GIBCO) medium containing 100 U/mL penicillin (manufactured by Life Technologies, Inc./GIBCO), 100 μg/mL streptomycin (manufactured by Life Technologies, Inc./GIBCO), and 10% fetal bovine serum (manufactured by Life Technologies, Inc./GIBCO) (hereinafter, referred to as “DMEM/F12 common medium”). In Example 14 below, a rat islet of Langerhans-derived cell line ISN-1e (kindly provided by Hisamitsu Ishihara, Nihon University School of Medicine) was cultured and maintained under conditions of 5% CO2/20% O2 and 37° C. in an RPMI1640 (manufactured by Life Technologies, Inc./GIBCO) medium containing 10 mM HEPES (manufactured by Sigma-Aldrich Corp.), 2 mM glutamine (manufactured by Sigma-Aldrich Corp.), 50 μM β-mercaptoethanol (manufactured by Sigma-Aldrich Corp.), 100 U/mL penicillin (manufactured by Life Technologies, Inc./GIBCO), 100 μg/mL streptomycin (manufactured by Life Technologies, Inc./GIBCO), and 10% FBS (manufactured by Life Technologies, Inc./GIBCO) (hereinafter, referred to as “RPMI1640 common medium 2”).
The Leigh cells were seeded at 4×10^4 cells/well to a 24-well cell culture plate and then cultured for 24 hours. The glutathione synthesis inhibitor BSO (L-buthionine sulphoximine) (manufactured by Sigma-Aldrich Corp.) was mixed at […] into a medium. After culture for 24 hours in the presence of BSO, each of 5 types of compounds (compounds #2, 4, 5, 21, and 35) was mixed at 10 μM into the medium. After culture for 4 days in the presence of these 5 types of compounds, the number of live cells was measured using Cell Counting Kit-8 (manufactured by Dojindo Laboratories) to calculate the survival rate of the cells (“BSO+#2”, “BSO+#4”, “BSO+#5”, “BSO+#21”, and “BSO+#35” of FIG. 17). […]

With `CCCn1cc(C(CC(=O)c2ccc(C)cc2C)C(=O)O)c2ccccc21` (stereo not shown) [compound #6, 4-(2,4-Dimethylphenyl)-2-(1-propyl-1H-indol-3-yl)-4-oxo-butanoic acid] the melting point was 139 to 141 °C.
With `CCCCn1cc(CC(=O)O)c2ccccc21` [compound #29, N-Butyl-3-indoleacetic acid] the “amount of ATP produced (FIG. 8)” value [1] was “enhance the amount of ATP produced”.
`CCCCOc1ccc2cccc(CC(=O)O)c2c1` [compound #33, α-(7-Butoxy-1-naphthalenyl)-acetic acid] gave a melting point of 102 to 104 °C.
For `CCOc1ccc2[nH]cc(CC(=O)O)c2c1` [compound #37, 5-Ethoxy-3-indoleacetic acid], the melting point was 86 to 92.7 °C.
For `CCC(C)CCC(C(=O)O)c1c[nH]c2ccccc12` (stereo not drawn) [compound #18, α-(3-Methyl-1-pentyl)-3-indoleacetic acid], the “effect on erythropoietin gene promoter transcriptional activity compared with HIF activator FG-4592” value [2] was “superior to the effect of the existing HIF activator (FG-4592)” and the “transcription level of the erythropoietin gene promoter” value [2] was “increase the transcription level”.
In the case of `CCCCCCn1cc(CC(=O)O)c2ccccc21` [compound #30, N-Hexyl-3-indoleacetic acid], the “amount of ATP produced (FIG. 8)” value [1] is reported as “enhance the amount of ATP produced”.
For `CCCOc1ccc2[nH]cc(CC(=O)O)c2c1` [compound #38, 5-(1-Propoxy)-3-indoleacetic acid], the “amount of ATP produced (FIG. 8)” value [1] was “enhance the amount of ATP produced” and the melting point was 133.6 to 136.8 °C.
For `CCn1cc(CC(=O)O)c2ccccc21` [compound #27, N-Ethyl-3-indoleacetic acid], the “amount of ATP produced (FIG. 8)” value [1] was “enhance the amount of ATP produced”.
In the case of `O=C(CC(C(=O)O)c1c[nH]c2ccccc12)c1ccc(Cl)cc1` (stereo not shown) [compound #2, 4-(4-Chlorophenyl)-2-(1H-indol-3-yl)-4-oxo-butanoic acid], the “mRNA expression level of the erythropoietin gene” value [3] is reported as “increase the mRNA expression level”, the “effect on erythropoietin gene promoter transcriptional activity compared with HIF activator FG-4592” value [2] is reported as “superior to the effect of the existing HIF activator (FG-4592)” and the “transcription level of the erythropoietin gene promoter” value [2] is reported as “increase the transcription level”. For the same molecule, the “cell death of the Leigh cells by BSO” value (Leigh cells) was “efficiently suppress the cell death”.
For `CCCCOc1ccc2[nH]cc(CC(=O)O)c2c1` [compound #39, 5-(1-Butoxy)-3-indoleacetic acid], the melting point was 137.8 to 141.1 °C.
With `CCCCCOc1ccc2cccc(CC(=O)O)c2c1` [compound #34, α-(7-Pentoxy-1-naphthalenyl)-acetic acid] the “increase of ATP concentration in cells relative to the normal level” value [1] was “two or more times the normal level” and the melting point was 104 to 106 °C.
For `COc1ccc2[nH]cc(CC(=O)O)c2c1` [compound #36, 5-Methoxy-3-indoleacetic acid], the “increase of ATP concentration in cells relative to the normal level” value [1] was “two or more times the normal level”.
In the case of `O=C(CC(C(=O)O)c1c[nH]c2ccccc12)c1ccccc1` (stereo not shown) [compound #20, 4-Phenyl-2-(1H-indol-3-yl)-4-oxo-butanoic acid], the melting point is reported as 149 to 150 °C.
